Consider 6 molecules from patent EP0005658A1, “Peptide derivatives analogue to encephalines, process for their preparation and their therapeutical application” (Laboratoire le Brun S.A. Société dite:, priority 1978, dated 1979).

Several values for one entry are separate records, joined by “and”; a condition that tells them apart may be missing. Equal values may be shown once.

Data set [1] deals with rat. Briefly: Castor oil diarrhoea test in the rat. Format: in vivo.
The test system of data set [2] is rat. Briefly: Catalepsy in the rat (psychotropic action). Format: in vivo. The source says:
Elle a été évaluée par la recherche d'une catalepsie chez le rat.
Ces essais ont été réalisés avec des rats femelles indexes d'organisées pathogènes spécifiques pesant de 200 à 220 g.
L'effet cataleptique est mesuré en suspendant le rat par ses pattes antérieures au rebord de la cage d'expérience : un rat cataleptique reste dans cette position alors qu'un animal normal l'abandonne aussitôt, voire ne la prend pas du tout.
La catalepsie est appréciée de la façon suivante: • 0 : pas de catalepsie • 1 : catalepsie liminaire • 2 : catalepsie d'intensité moyenne • […] : catalepsie très prononcée
Les animaux sont traités par voie sous cutanée.
Les expériences ont été effectuées à l'aveugle, l'observateur ignorant les traitements.

The target in data set [3] is iléon de cobaye (Cavia porcellus, UniProt A0ACM8Q262). The data set is described as follows: cell-based. Format: cell-based. As to conditions: for Activité Morphine =100: activity relative to morphine (= 100) in concomitant tests. How it is done: I. Action analgésique par rapport à la morphine comme substance de référence qui a été contrôlée • a) Sur organe isolé. - iléon de cobaye
iléon de cobaye, sequence (A0ACM8Q262 1-400): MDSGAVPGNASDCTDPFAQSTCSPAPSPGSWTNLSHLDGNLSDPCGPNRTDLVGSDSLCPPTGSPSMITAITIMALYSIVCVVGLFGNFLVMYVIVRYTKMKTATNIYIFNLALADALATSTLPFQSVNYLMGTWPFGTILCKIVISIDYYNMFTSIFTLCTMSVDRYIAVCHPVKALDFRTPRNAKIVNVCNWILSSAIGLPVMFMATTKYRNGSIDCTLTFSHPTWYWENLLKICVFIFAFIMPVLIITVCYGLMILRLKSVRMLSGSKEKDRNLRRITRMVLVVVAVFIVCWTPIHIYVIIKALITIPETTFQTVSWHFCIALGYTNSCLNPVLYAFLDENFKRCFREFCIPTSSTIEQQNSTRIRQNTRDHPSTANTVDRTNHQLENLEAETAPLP
On a utilisé la technique de stimulation transmu- rale de l'iléon de cobaye de PATON (W.D.M. PATON, "The rés- ponse of the guinea-pig ileum to electrical stimulation by coaxial electrodes" - J. Physiol. (London), 127, 40P-41P (1955) et PATON (W.D.M.) - Brit.J. Pharmacol. 11).
• - Les essais ont été réalisés dans une cuve de 35 ml irriguée par une solution de KREBS. • - Les stimulations électriques, supramaximales (6 par minute - […]) étaient ajustées à chaque essai. Courant rectangulaire - durée-0,5 milliseconde. • - Les concentrations des différents produits étudiés, ainsi que celles de la morphine qui a servi de corps de référence, sont exprimées en nanomoles (nM) par litre. • - Pour chaque concentration, le temps de contact a été de 3 minutes. Chaque essai était séparé du suivant par une période de 10 à 20 minutes. • - Les résultats sont exprimés en pourcentage d'inhibition de la concentration consécutive à la stimulation électri--que de l'iléon. On a ensuite calculé les doses actives 50 par la méthode de Parker et Waud (J. of pharmacology, 1971, 177, n°4) qui ont été comparées à celle de la morphine dans des essais concomitants.

In data set [4] the target is sites de liaison à haute et moyenne affinité de la leucine-enképhaline 3-R de membranes striatales de souris. Briefly: Competition with tritiated Leu-enkephalin binding on mouse striatal membranes. As to conditions: displacement of a fixed concentration of Leucine-Enképhaline 3-H. Here is the method: On a déterminé le pouvoir compétiteur des dérivés de l'invention vis-à-vis des sites de liaison à haute et moyenne affinité de la leucine-enképhaline 3-R de membranes striatales de souris.
Les conditions de préparation des membranes et d'incubation ont été les mêmes que celles qui sont décrites dans Audigier et Coll. (C. Acad. Sciences plus Euro- pean J. of Pharmacol.).
Des concentrations croissantes des divers composés synthétisés ont été opposées à une concentration fixe de Leucine-Enképhaline 3-H et les déplacements observés ont permis dans chaque cas de déterminer une constante d'inhi- bition (Ki).

Data set [5] is described as follows: Acute toxicity in the mouse. Set-up: species or system souris. The note with it: in vivo, IV route, read-out: D.L. 5a. Here is the method:
Les dérivés de formule générale I bénéficient d'une excellente tolérance et d'une faible toxicité qui a été plus particulièrement étudiée sur lés dérivés N° 12 et 13, qui ont fait l'objet d'une épreuve de toxicité aiguë chez la souris.
Les D.L. 5a obtenues sont respectivement de : • 725 ± 25 mg/kg par voie IV pour le dérivé.n° 12. • et 892 ± 31 mg/kg "" " pour le dérivé n° 13.

In data set [6] the test system is souris. Briefly: Hot plate test in the mouse (analgesia). The note with it: 10 mg/kg compared with morphine 1 mg/kg, taking molarities into account. (In general: Hot-plate and tail-flick tests time the reaction to a heat stimulus.)
Data set [7] addresses Vas déferens de souris (Mus musculus, UniProt P32300). Briefly: Transmural electrical stimulation of mouse vas deferens (Hughes and Kosterlitz). Format: cell-based. The note with it: contact time 3 minutes, read-out: % d'inhibition. Here is the method: On a utilisé une technique de stimulation transmu- rale du canal différent de la souris, adaptée à celle décrite par HUCHES et KOSTERLITZ (J.HUGUES, H.W.KOSTERLITZ and Frances M.LESLIE, "Effect of morphine ou adrenergic transmission in the mouse vas deferens. Assessment of ago- nist and antagonist potencies of narcotic analgesics".-Br J. Pharmac. 53 371-381 (1975).
• - Les essais ont été réalisés dans une cuve de 7 ml irriguée par une solution de KREBS. • - Les stimulations électriques, supramaximales (6 par minute) étaient ajustées à chaque essai. • - Les concentrations des différents produits étudiés sont exprimées en nM par litre. • - Pour chaque concentration le temps de contact a été de 3 minutes. Dans les cas où le maximum d'inhibition a été atteint en un temps plus court, le fait a été signalé. Chaque essai était séparé du suivant par une période de 10 à 20 minutes. • - Les résultats sont exprimés en pourcentage d'inhibition de la concentration consécutive à la stimulation électrique du canal déférent. On a ensuite calculé les doses actives 50 par la méthode de Parker & Wand (J.Pharm. Exper. Therap.96-99 (1949).

Setting [8] is: 2 heures after product, oral 3 mg/kg, 10 rats.
Setting [9] is: 2 heures after product, oral 10 mg/kg, 10 rats (Codéine base: 20 rats).
The mark [10] stands for this setting: 2 heures after product, oral 30 mg/kg, 10 rats.
The mark [11] stands for this setting: 4 heures after product, oral 3 mg/kg, 10 rats.
[12] abbreviates: 4 heures after product, oral 10 mg/kg, 10 rats (Codéine base: 20 rats).
[13] abbreviates: 4 heures after product, oral 30 mg/kg, 10 rats.

Vas déferens de souris, sequence (P32300 whole entry): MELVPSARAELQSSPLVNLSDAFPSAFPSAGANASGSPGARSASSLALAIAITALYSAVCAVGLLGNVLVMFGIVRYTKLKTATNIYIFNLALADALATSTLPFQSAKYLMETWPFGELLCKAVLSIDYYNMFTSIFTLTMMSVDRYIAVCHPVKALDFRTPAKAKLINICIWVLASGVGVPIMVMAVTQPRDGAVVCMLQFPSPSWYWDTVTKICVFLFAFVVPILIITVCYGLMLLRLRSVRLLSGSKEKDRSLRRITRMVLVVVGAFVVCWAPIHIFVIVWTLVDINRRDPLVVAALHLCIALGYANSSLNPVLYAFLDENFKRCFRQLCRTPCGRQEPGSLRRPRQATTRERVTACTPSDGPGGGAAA

Turning to `COc1ccc2c3c1O[C@H]1[C@@H](O)C=C[C@H]4[C@@H](C2)N(C)CC[C@@]341` [Codéine base, Codéine], the “Nombre d'animaux non diarrhéiques” value in data set [1] (setting [8]) amounted to 7; in data set [1] (setting [9]), 19; in data set [1] (setting [10]), 10; in data set [1] (setting [11]), 4; in data set [1] (setting [12]), 14; in data set [1] (setting [13]), 8.

Turning to `CSCC[C@H](NC(=O)[C@H](Cc1ccccc1)NC(=O)CNC(=O)[C@@H](C)NC(=O)[C@@H](N)Cc1ccc(O)cc1)C(=O)NCCNS(=O)(=O)c1cccc2c(N(C)C)cccc12` [Dérivé n° 12, Tyr-D Ala- Gly-Phe-Met-NH-(CH2)2-NH-SO2 -X, dans lequel X est un groupe 5 diméthylamino-α-naphtyle], the “D.A. 50/ sous cut.” value in data set [2] (catalepsy, subcutaneous route, female rats) worked out at 5 mg/kg. Also, in data set [3] (12 nM/l, contact time 3 minutes, read-out: % d'inhibition), the inhibition (as a rule, the percentage by which the read-out fell short of the control) at 0.012 µM was 28.3%. Besides, the inhibition at 0.018 µM in data set [3] (18 nM/l, contact time 3 minutes, read-out: % d'inhibition) worked out at 35.5%. In addition, in data set [3] (24 nM/l, contact time 3 minutes, read-out: % d'inhibition), the inhibition at 0.024 µM amounted to 51.3%. The inhibition at 0.06 µM in data set [3] (60 nM/l, contact time 3 minutes, read-out: % d'inhibition) is 76.3%. Further, the “Activité Morphine =100” value in data set [3] was determined as 147. For the same molecule, in data set [4], the affinity, expressed as Ki, was 5 ± 2 nM. Further, the “Nombre d'animaux non diarrhéiques” value in data set [1] (setting [8]) was determined as 6; in data set [1] (setting [9]), 10; in data set [1] (setting [10]), 10; in data set [1] (setting [11]), 3; in data set [1] (setting [12]), 6; in data set [1] (setting [13]), 10. For the same molecule, in data set [1] (statement in words, 30 mg/kg, four hours), the “action antidiarrhéique” value was “protège tous les animaux”. In addition, the LD50 in data set [5] is 725 ± 25 mg/kg. Further, in data set [6], the “coefficient d'activité” value was ~35%. In data set [7] (1,2 nM/l), the inhibition at 0.0012 µM is 41.8%. Further, the inhibition at 0.0018 µM in data set [7] (1,8 nM/l) is 50%. For the same molecule, in data set [7] (2,4 nM/l), the inhibition at 0.0024 µM is 63%.

`CSCC[C@H](NC(=O)[C@H](Cc1ccccc1)NC(=O)CNC(=O)[C@@H](C)NC(=O)[C@@H](N)Cc1ccc(O)cc1)C(=O)NCCCCCNS(=O)(=O)c1cccc2c(N(C)C)cccc12` [Dérivé n° 13]: the inhibition at 0.15 µM in data set [3] (150 nM/l, contact time 3 minutes, read-out: % d'inhibition) amounted to 34.2%. In addition, the inhibition at 0.3 µM in data set [3] (300 nM/l, contact time 3 minutes, read-out: % d'inhibition) amounted to 46.4%. The inhibition at 0.6 µM in data set [3] (600 nM/l, contact time 3 minutes, read-out: % d'inhibition) stood at 68.1%; in data set [7] (600 nM/l), 38%. Further, the “Activité Morphine =100” value in data set [3] is recorded as 12,7. Moreover, affinity in data set [4] was put at a Ki of 21 ± 5 nM. For the same molecule, the LD50 in data set [5] was found to be 892 ± 31 mg/kg. Moreover, the inhibition at 0.75 µM in data set [7] (750 nM/l) turned out to be 55%. Further, the inhibition at 0.9 µM in data set [7] (900 nM/l) is 83.3%. Moreover, the inhibition at 1.5 µM in data set [7] (1 500 nM/l) was found to be 90.5%.

As for `O=C(CCCN1CCC(O)(c2ccc(Cl)cc2)CC1)c1ccc(F)cc1` [Halopéridol], the ED50 in data set [2] (Rattus norvegicus, sc, catalepsy, subcutaneous route, female rats, read-out: D.A. 50/ sous cut.) is 0.2 mg/kg.

In the case of `CC(C)C[C@H](NC(=O)[C@H](Cc1ccccc1)NC(=O)CNC(=O)CNC(=O)[C@@H](N)Cc1ccc(O)cc1)C(=O)O` [Leu-enképhaline, reference compound], the affinity in data set [4], expressed as Ki, was 5 ± 1.8 nM.

Take `CN1CC[C@]23c4c5ccc(O)c4O[C@H]2[C@@H](O)C=C[C@H]3[C@H]1C5` [Morphine]: the “D.A. 50/ sous cut.” value in data set [2] (rat, in vivo, sc) was 2,5 mg/kg. Also, the “Nombre d'animaux non diarrhéiques” value is 9 and 5 in data set [1] (rat, in vivo, po, 3 mg/kg); 10 and 8 in data set [1] (rat, in vivo, po, 10 mg/kg).
